The values that follow come from ChEMBL document CHEMBL3526130, “An evaluation of using rat-derived single-dose neuropharmacokinetic parameters to project accurately large animal unbound brain drug concentrations” (Drug Metab Dispos, 2012).

The nature of data set [1]: Ratio of unbound brain concentration to drug level in cerebrospinal fluid in Sprague-Dawley rat at 1 mg/kg, sc by LC-MS/MS analysis. The class given is ADME, organism-based. On the set-up: dose 1 mg/kg, route subcutaneous. Particulars: in vivo.
Data set [2] in a line: AUC(0 to infinity) in Sprague-Dawley rat plasma at 1 mg/kg, sc by LC-MS/MS analysis. The class given is ADME, organism-based. Further details: time infinity, dose 1 mg/kg, route subcutaneous.
Data set [3] is described as follows: AUC(0 to infinity) in Sprague-Dawley rat cerebrospinal fluid at 1 mg/kg, sc by LC-MS/MS analysis. The class given is ADME, organism-based. On the set-up: time infinity, dose 1 mg/kg, route subcutaneous.
Data set [4] in a line: Ratio of unbound drug level in brain to plasma in Beagle dog at 0.5 mg/kg, po by LC-MS/MS analysis. Further details: dose 0.5 mg/kg, route oral. Type of data set: ADME, organism-based, Canis lupus familiaris. The settings on record: brain and plasma.
The nature of data set [5]: Unbound fraction in cynomolgus monkey brain at 0.1 mg/kg, sc by LC-MS/MS analysis. Type of data set: ADME, organism-based, Macaca fascicularis. On the set-up: dose 0.1 mg/kg, route subcutaneous.
Data set [6] is described as follows: Ratio of drug level in brain to plasma in cynomolgus monkey at 0.1 mg/kg, sc by LC-MS/MS analysis. The settings on record: brain and plasma, read-out: BPR. Further details: dose 0.1 mg/kg, route subcutaneous. Type of data set: ADME, organism-based, Macaca fascicularis.
A short description of data set [7]: Ratio of unbound brain concentration to drug level in cerebrospinal fluid in cynomolgus monkey at 0.1 mg/kg, sc by LC-MS/MS analysis. The class given is ADME, organism-based, Macaca fascicularis. On the set-up: dose 0.1 mg/kg, route subcutaneous. Particulars: in vivo.
Data set [8] in a line: Unbound fraction in cynomolgus monkey plasma at 0.1 mg/kg, sc by LC-MS/MS analysis. The class given is ADME, organism-based, Macaca fascicularis. On the set-up: dose 0.1 mg/kg, route subcutaneous.
Data set [9] has as its system Nucleic Acid. The experiment in a line: Ratio of drug level in cerebrospinal fluid to unbound plasma concentration in cynomolgus monkey at 0.1 mg/kg, sc by LC-MS/MS analysis. Particulars: in vivo. On the set-up: dose 0.1 mg/kg, route subcutaneous. The class given is ADME, organism-based, Macaca fascicularis.
Data set [10] is described as follows: Unbound fraction in Beagle dog brain at 0.5 mg/kg, po by LC-MS/MS analysis. Type of data set: ADME, organism-based, Canis lupus familiaris. On the set-up: dose 0.5 mg/kg, route oral.
Data set [11] can be described thus: Ratio of unbound brain concentration to drug level in cerebrospinal fluid in Beagle dog at 0.5 mg/kg, po by LC-MS/MS analysis. Type of data set: ADME, organism-based, Canis lupus familiaris. On the set-up: dose 0.5 mg/kg, route oral. The settings on record: in vivo.
Data set [12] can be described thus: AUC(0 to 2 hrs) in Sprague-Dawley rat plasma at 1 mg/kg, sc by LC-MS/MS analysis. The class given is ADME, organism-based. Further details: time < 2 hr, dose 1 mg/kg, route subcutaneous.
Data set [13] in a line: AUC(0 to infinity) in Sprague-Dawley rat brain at 1 mg/kg, sc by LC-MS/MS analysis. The class given is ADME, organism-based. On the set-up: time infinity, dose 1 mg/kg, route subcutaneous.
Data set [14] is described as follows: AUC(0 to 2 hrs) in Sprague-Dawley rat cerebrospinal fluid at 1 mg/kg, sc by LC-MS/MS analysis. The class given is ADME, organism-based. On the set-up: time < 2 hr, dose 1 mg/kg, route subcutaneous.
Data set [15] is described as follows: Ratio of unbound drug level in brain to plasma in cynomolgus monkey at 0.1 mg/kg, sc by LC-MS/MS analysis. Type of data set: ADME, organism-based, Macaca fascicularis. Further details: dose 0.1 mg/kg, route subcutaneous. Particulars: brain and plasma.
Data set [16] is described as follows: AUC(0 to 2 hrs) in Sprague-Dawley rat brain at 1 mg/kg, sc by LC-MS/MS analysis. On the set-up: time < 2 hr, dose 1 mg/kg, route subcutaneous. The class given is ADME, organism-based.
Data set [17] can be described thus: Ratio of unbound drug level in brain to plasma in Sprague-Dawley rat at 1 mg/kg, sc by LC-MS/MS analysis. The class given is ADME, organism-based. Further details: dose 1 mg/kg, route subcutaneous.
In data set [18] the test system is Nucleic Acid. The experiment in a line: Ratio of drug level in cerebrospinal fluid to unbound plasma concentration in Sprague-Dawley rat at 1 mg/kg, sc by LC-MS/MS analysis. Type of data set: ADME, organism-based. On the set-up: dose 1 mg/kg, route subcutaneous. Particulars: in vivo.
Data set [19] is described as follows: Unbound fraction in Beagle dog plasma at 0.5 mg/kg, po by LC-MS/MS analysis. The class given is ADME, organism-based, Canis lupus familiaris. Further details: dose 0.5 mg/kg, route oral.
In data set [20] the test system is Nucleic Acid. The experiment in a line: Ratio of drug level in cerebrospinal fluid to unbound plasma concentration in Beagle dog at 0.5 mg/kg, po by LC-MS/MS analysis. The class given is ADME, organism-based, Canis lupus familiaris. On the set-up: dose 0.5 mg/kg, route oral. The settings on record: in vivo.
Data set [21] is described as follows: Ratio of drug level in brain to plasma in Sprague-Dawley rat at 1 mg/kg, sc by LC-MS/MS analysis. Type of data set: ADME, organism-based. Further details: dose 1 mg/kg, route subcutaneous. The settings on record: read-out: BPR.
Data set [22] can be described thus: AUC(0 to infinity) in Sprague-Dawley rat brain at 0.2 mg/kg, sc by LC-MS/MS analysis. Type of data set: ADME, organism-based. Further details: time infinity, dose 0.2 mg/kg, route subcutaneous.
A short description of data set [23]: AUC(0 to infinity) in Sprague-Dawley rat cerebrospinal fluid at 0.2 mg/kg, sc by LC-MS/MS analysis. The class given is ADME, organism-based. Further details: time infinity, dose 0.2 mg/kg, route subcutaneous.
The nature of data set [24]: AUC(0 to 7 hrs) in Sprague-Dawley rat cerebrospinal fluid at 0.2 mg/kg, sc by LC-MS/MS analysis. The class given is ADME, organism-based. Further details: time < 7 hr, dose 0.2 mg/kg, route subcutaneous.
The nature of data set [25]: AUC(0 to 7 hrs) in Sprague-Dawley rat brain at 0.2 mg/kg, sc by LC-MS/MS analysis. Type of data set: ADME, organism-based. On the set-up: time < 7 hr, dose 0.2 mg/kg, route subcutaneous.
A short description of data set [26]: AUC(0 to 7 hrs) in Sprague-Dawley rat plasma at 0.2 mg/kg, sc by LC-MS/MS analysis. On the set-up: time < 7 hr, dose 0.2 mg/kg, route subcutaneous. The class given is ADME, organism-based.
Data set [27] in a line: AUC(0 to infinity) in Sprague-Dawley rat plasma at 0.2 mg/kg, sc by LC-MS/MS analysis. Type of data set: ADME, organism-based. On the set-up: dose 0.2 mg/kg, route subcutaneous, time infinity.
Data set [28] in a line: AUC(0 to infinity) in Sprague-Dawley rat plasma at 3 mg/kg, sc by LC-MS/MS analysis. The class given is ADME, organism-based. On the set-up: time infinity, dose 3 mg/kg, route subcutaneous.
Data set [29] is described as follows: Ratio of drug level in brain to plasma in Sprague-Dawley rat at 3 mg/kg, sc by LC-MS/MS analysis. Type of data set: ADME, organism-based. The settings on record: read-out: BPR. On the set-up: dose 3 mg/kg, route subcutaneous.
Data set [30] can be described thus: AUC(0 to 7 hrs) in Sprague-Dawley rat plasma at 3 mg/kg, sc by LC-MS/MS analysis. On the set-up: time < 7 hr, dose 3 mg/kg, route subcutaneous. The class given is ADME, organism-based.
Data set [31] can be described thus: Ratio of unbound brain concentration to drug level in cerebrospinal fluid in Sprague-Dawley rat at 3 mg/kg, sc by LC-MS/MS analysis. Type of data set: ADME, organism-based. Further details: dose 3 mg/kg, route subcutaneous. The settings on record: in vivo.
Data set [32] in a line: AUC(0 to infinity) in Sprague-Dawley rat cerebrospinal fluid at 3 mg/kg, sc by LC-MS/MS analysis. Type of data set: ADME, organism-based. On the set-up: dose 3 mg/kg, route subcutaneous, time infinity.
Data set [33] can be described thus: AUC(0 to 7 hrs) in Sprague-Dawley rat cerebrospinal fluid at 3 mg/kg, sc by LC-MS/MS analysis. On the set-up: time < 7 hr, dose 3 mg/kg, route subcutaneous. The class given is ADME, organism-based.
Data set [34] in a line: Ratio of unbound drug level in brain to plasma in Sprague-Dawley rat at 3 mg/kg, sc by LC-MS/MS analysis. The class given is ADME, organism-based. On the set-up: dose 3 mg/kg, route subcutaneous.
The nature of data set [35]: AUC(0 to infinity) in Sprague-Dawley rat brain at 3 mg/kg, sc by LC-MS/MS analysis. Type of data set: ADME, organism-based. On the set-up: dose 3 mg/kg, route subcutaneous, time infinity.
Data set [36] concerns Nucleic Acid. Kind of data set: Ratio of drug level in cerebrospinal fluid to unbound plasma concentration in Sprague-Dawley rat at 3 mg/kg, sc by LC-MS/MS analysis. The class given is ADME, organism-based. Further details: dose 3 mg/kg, route subcutaneous. The settings on record: in vivo.
Data set [37] is described as follows: AUC(0 to 7 hrs) in Sprague-Dawley rat brain at 3 mg/kg, sc by LC-MS/MS analysis. The class given is ADME, organism-based. On the set-up: time < 7 hr, dose 3 mg/kg, route subcutaneous.

Turning to `CC(C)S(=O)(=O)N[C@H]1CCOC[C@@H]1c1ccc(-c2ccc(C#N)s2)cc1`, the Ratio in data set [1] is on record as 0.74; in data set [7] it was 0.94; in the data set with Nucleic Acid [9] it was 0.78; in data set [11] it was 1.19; in the data set on Nucleic Acid [18] it was 0.6; in the data set with Nucleic Acid [20] it was 0.43. The AUC(0-inf) came to 131 ng·h/mL in [2], 5.4 ng·h/mL in data set [3] and 150 ng·h/mL in data set [13]. In addition, the Kp uu was 0.51 in [4], 0.73 in data set [15] and 0.44 in data set [17]. Moreover, the fraction unbound in data set [5] worked out at 0.0228; in data set [8], 0.0876; in data set [10], 0.026; in data set [19], 0.0685. The Kp in [6] worked out at 2.82; in data set [21] it was 1.07. Besides, the AUC(0-t) at 2 h in data set [12] was found to be 122 ng·h/mL; in [14], 3.46 ng·h/mL; in [16] it was 131 ng·h/mL.
For the compound `CCCC(C)C1(CC)C(=O)NC(=S)NC1=O` (configuration not stated) [THIOPENTAL], the AUC(0-inf) is 215 ng·h/mL in data set [22], 16.6 ng·h/mL in data set [23] and 244 ng·h/mL in [27]. Further, the figures for the AUC(0-t) at 7 h in data set [24], in [25] and in data set [26] were 16.4 ng·h/mL, 209 ng·h/mL and 216 ng·h/mL, respectively.
For the compound `CCN(CC)CCNC(=O)c1cc(Cl)c(N)cc1OC` [METOCLOPRAMIDE], the figures for the area under the curve AUC(0-inf) in data set [28], in data set [32] and in [35] were 367 ng·h/mL, 420 ng·h/mL and 635 ng·h/mL, respectively. In addition, the Kp in [29] was 1.72. The area under the curve AUC(0-t) at 7 h in [30] turned out to be 365 ng·h/mL; in data set [33], 418 ng·h/mL; in data set [37], 629 ng·h/mL. In addition, the Ratio is given as 0.5 in data set [31] and 1.8 in the data set on Nucleic Acid [36]. Besides, in [34], the Kp uu is 0.89.

A word on the AUC(0-inf): it is the area under the concentration-time curve extrapolated to infinity. Usually fraction unbound stands for free concentration divided by total concentration. The term AUC(0-t) denotes the area under the concentration-time curve up to a stated or last time point.
